PMC6149822, “A New Series of Pyrrole-Based Chalcones: Synthesis and Evaluation of Antimicrobial Activity, Cytotoxicity, and Genotoxicity” (Molecules : A Journal of Synthetic Chemistry and Natural …, 2017)
In brackets after ≈: the same amount, converted by molar mass. Marks after values point to notes of the source that are not given here.

Assays:
[1] = system: Salmonella typhimurium TA98; assay: Ames MPF mutagenicity assay; type: cell-based; settings: for Revertants fold increase (over baseline) TA 98 S9+: with S9; for Revertants fold increase (over baseline) TA 98 S9−: without S9; for Genotoxicity classification (Ames MPF): TA98, with/without metabolic activation, 0.16-5 mg/mL
Procedure: An Ames MPF 98/100 mutagenicity assay sample kit (Xenometrix AG, Allschwil, Switzerland) was used to evaluate the genotoxicity of compounds 7 and 9 as described previously. Salmonella typhimurium TA98 (frameshift mutations) and TA100 (base-pair substitutions) strains were used and the compounds were tested in concentrations between […] and 5000 μg/mL (5.0, 2.5, 1.25, 0.625, 0.3125, 0.156 mg/mL in DMSO) in accordance with the guidelines. Mutagenity was tested with/without metabolic activation with an Aroclor™-1254 induced male Sprague–Dawley rat liver microsomal enzyme (S9) mix (Xenometrix AG, Allschwil, Switzerland). 2-Nitrofluorene (2.0 μg/mL) and 4-nitroquinoline N-oxide (0.1 μg/mL) were used without S9, and 1.0 μg/mL and 2.5 μg/mL of 2-aminoanthracene solutions were used with S9 against TA98 and TA100 as positive controls, respectively. At the end of each experiment, yellow wells were counted as positive and compared with the negative control. Fold induction over the negative control and fold induction over the baseline were calculated as described: Fold induction over the negative control is the ratio of the mean number of positive wells for the dose concentration divided by the mean number of positive wells for the zero-dose (negative) control. Fold induction over the baseline is the ratio of the mean number of positive wells for the dose concentration divided by the zero-dose baseline. The zero-dose baseline is obtained by adding one standard deviation to the mean number of positive wells of the zero-dose control. If the baseline is less than one, the value is set to one for calculation.
Genotoxicity was determined according to the previous criteria. For a baseline value of ≤3, significant increases between 2- and 3-fold of the baseline were classified as weak mutagens, and increases ≥3-fold of the baseline were classified as mutagens. For a baseline value of >3, significant increases between 1.5- and 2.5-fold of the baseline were classified as weak mutagens, and increases ≥2.5-fold of the baseline were classified as mutagens. At least two adjacent doses with significant increases, or a significant increase at the highest dose level, should be observed for a mutagenic compound. All of the doses were compared according to Student’s t-test at p < 0.05 for statistical significance.

C. krusei (ATCC 6258) = assay: Microdilution susceptibility assay (MIC); type: cell-based, Candida krusei; settings: Pichia kudriavzevii, ATCC6258
Procedure: Compounds 1–10 were screened for their antimicrobial activity against gram-negative bacteria, gram-positive bacteria, and yeasts, listed in Table 1. Bacteria were grown in Mueller-Hinton Broth and yeasts were grown in Sabouraud Dextrose Broth (SDB) during experiments. Overnight cultures were prepared routinely by subculturing of stock culture onto Mueller-Hinton Agar for bacteria and Sabouraud Dextrose Agar for yeasts.
Microdilution susceptibility assay was used for the determination of antibacterial and anticandidal efficacy of compounds 1–10. Chloramphenicol and ketoconazole were used as positive controls for bacteria and yeasts, respectively. All experiments were designed according to the Clinical Laboratory Standards Institute (CLSI). All chemicals were dissolved in dimethyl sulfoxide (DMSO) to obtain stock solution (10 mg/mL). Two-fold serial dilutions (800, 400, 200...0.78 µg/mL) of the compounds were prepared from stock solutions with dH2O. 100 µL of each solution was transferred to 96-well microtiter plates and 100 µL of 10^6 CFU/mL of bacteria and 2 × 10^3 of CFU/mL yeast were added to related wells. As negative controls, wells including microorganisms without agents and wells including agents without microorganisms were used. The plates were kept at 35 °C for 18–20 h and the growth was determined with resazurin (20 mg/mL). Assays were carried out in triplicate.

[2] = system: HepG2 human hepatocellular carcinoma cell line; assay: MTT assay; type: cell-based; settings: Homo sapiens, HepG2
Procedure: (§1) The anticancer effects of compounds 1–10 on A549 human lung adenocarcinoma (ATCC® CCL-185™), HepG2 human hepatocellular carcinoma (ATCC® HB-8065™), and C6 rat glioma (ATCC® CCL107™) cell lines were assessed using 3-(4,5-Dimethylthiazol-2-yl)-2,5-diphenyltetrazolium bromide (MTT) assay, whereas the selectivity of compounds 1–10 was tested using NIH/3T3 mouse embryonic fibroblast cell line (ATCC® CRL-1658™, London, UK). All cell lines were incubated according to the supplier’s recommendations. The cells were seeded as 1 × 10^4 cells into each well of the 96-well plates. MTT assay was performed as previously described. The compounds were tested between the concentrations equal to 1 mM and 0.000316 mM (1.0, 0.316, 0.10, 0.0316, 0.01, 0.00316, 0.001, 0.000316 mM). Stock solutions of compounds were prepared in dimethyl sulfoxide (DMSO) and further dilutions were made with fresh culture medium. The final DMSO concentration was under 1% [34] and cisplatin was used as a positive control. Inhibition % was calculated for each concentration according to the formula below, and IC50 values were determined by plotting a dose–response curve of inhibition % versus compound concentrations tested. All experiments were performed in quadruplicate.Inhibition % = 100 − [(ODtest compound − ODblank/ODsolvent control − ODblank)] × 100(1)

C6 rat glioma cell line = assay: MTT assay; type: cell-based; settings: Rattus norvegicus, C6
Procedure: as §1

[3] = system: A549 human lung adenocarcinoma cell line; assay: MTT assay; type: cell-based; settings: Homo sapiens, A549
Procedure: as §1

[4] = system: NIH/3T3 mouse embryonic fibroblast cell line; assay: MTT assay; type: cell-based; settings: Mus musculus, NIH3T3, healthy cells for selectivity
Procedure: as §1

Structure (SMILES) | Revertants fold increase (over baseline) TA 98 S9+ ([1]; 0.16 mg/mL) | Revertants fold increase (over baseline) TA 98 S9− ([1]; 0.16 mg/mL) | Revertants fold increase (over baseline) TA 98 S9+ ([1]; 0.31 mg/mL) | Revertants fold increase (over baseline) TA 98 S9− ([1]; 0.31 mg/mL) | Revertants fold increase (over baseline) TA 98 S9+ ([1]; 0.63 mg/mL) | Revertants fold increase (over baseline) TA 98 S9− ([1]; 0.63 mg/mL) | Revertants fold increase (over baseline) TA 98 S9+ ([1]; 1.25 mg/mL) | Revertants fold increase (over baseline) TA 98 S9− ([1]; 1.25 mg/mL) | Revertants fold increase (over baseline) TA 98 S9+ ([1]; 2.5 mg/mL) | Revertants fold increase (over baseline) TA 98 S9− ([1]; 2.5 mg/mL) | Revertants fold increase (over baseline) TA 98 S9+ ([1]; 5 mg/mL) | Revertants fold increase (over baseline) TA 98 S9− ([1]; 5 mg/mL) | Genotoxicity classification (Ames MPF) [1] | MIC (C. krusei (ATCC 6258)) | IC50 [2] | IC50 (C6 rat glioma cell line) | IC50 [3] | IC50 [4]
Cn1cccc1C(=O)C=Cc1ccc(-c2cc(Cl)ccc2Cl)o1 [Compound 9, 1-(1-Methyl-1H-pyrrol-2-yl)-3-(5-(2,5-dichlorophenyl)furan-2-yl)prop-2-en-1-one] | 0.51 | 0.89 | 0.79 | 0.83 | 0.34 * | 0.89 | 0.39 | 1.07 | 0.79 | 0.24 * | 0.51 | 0.54 | non-genotoxic | 25 µg/mL (≈ 72.2 µM) | 101 µg/mL (≈ 292 µM) | 109 µg/mL (≈ 315 µM) | > 346 µg/mL | 109 µg/mL (≈ 315 µM)
Cn1cccc1C(=O)C=Cc1ccc(-c2ccc(Cl)cc2)o1 [Compound 7, 1-(1-Methyl-1H-pyrrol-2-yl)-3-(5-(4-chlorophenyl)furan-2-yl)prop-2-en-1-one] | 0.68 | 0.66 | 0.76 | 0.33 | 1.01 | 0.44 | 0.68 | 0.66 | 0.51 | 0.33 | 0.25 |  | non-genotoxic | 25 µg/mL (≈ 80.2 µM) | 23 µg/mL (≈ 73.8 µM) | 311 µg/mL (≈ 998 µM) | 98 µg/mL (≈ 314 µM) | 40 µg/mL (≈ 128 µM)
